Patent publication US20180021360A1, “Combination Therapy Regimen For Treatment Of Selected HCV Genotypes” (JANSSEN PHARMACEUTICALS, INC., priority 2016, published 2018)

Assays:
HCV genotype 3 = assay: activity against genotype 3 in vitro; design: species or system hepatitis C virus
OATP1B1 = biological target: T1, OATP1B1 (Homo sapiens, UniProt Q9Y6L6); conditions: cited from earlier work
T1 sequence (Q9Y6L6 1-691): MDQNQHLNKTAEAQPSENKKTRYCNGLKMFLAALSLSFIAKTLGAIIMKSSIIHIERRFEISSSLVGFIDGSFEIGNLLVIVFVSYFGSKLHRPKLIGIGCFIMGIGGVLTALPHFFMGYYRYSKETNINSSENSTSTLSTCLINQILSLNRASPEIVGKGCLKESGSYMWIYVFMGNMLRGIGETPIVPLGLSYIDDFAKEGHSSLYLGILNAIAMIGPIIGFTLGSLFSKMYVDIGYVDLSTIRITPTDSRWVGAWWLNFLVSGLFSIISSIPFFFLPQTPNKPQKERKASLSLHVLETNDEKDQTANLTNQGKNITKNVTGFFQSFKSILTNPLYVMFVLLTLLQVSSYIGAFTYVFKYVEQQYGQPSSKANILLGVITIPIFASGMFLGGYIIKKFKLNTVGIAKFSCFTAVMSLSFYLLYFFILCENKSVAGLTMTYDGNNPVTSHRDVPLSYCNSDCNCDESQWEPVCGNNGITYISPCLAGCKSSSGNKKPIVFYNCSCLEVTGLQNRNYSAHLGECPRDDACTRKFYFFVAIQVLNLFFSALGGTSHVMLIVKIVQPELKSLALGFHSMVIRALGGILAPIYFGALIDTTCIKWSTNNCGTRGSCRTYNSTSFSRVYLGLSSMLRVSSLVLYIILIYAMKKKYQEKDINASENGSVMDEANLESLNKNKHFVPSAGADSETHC

OATP1B3 = biological target: T2, OATP1B3 (Homo sapiens, UniProt Q9NPD5); conditions: cited from earlier work
T2 sequence (Q9NPD5 1-702): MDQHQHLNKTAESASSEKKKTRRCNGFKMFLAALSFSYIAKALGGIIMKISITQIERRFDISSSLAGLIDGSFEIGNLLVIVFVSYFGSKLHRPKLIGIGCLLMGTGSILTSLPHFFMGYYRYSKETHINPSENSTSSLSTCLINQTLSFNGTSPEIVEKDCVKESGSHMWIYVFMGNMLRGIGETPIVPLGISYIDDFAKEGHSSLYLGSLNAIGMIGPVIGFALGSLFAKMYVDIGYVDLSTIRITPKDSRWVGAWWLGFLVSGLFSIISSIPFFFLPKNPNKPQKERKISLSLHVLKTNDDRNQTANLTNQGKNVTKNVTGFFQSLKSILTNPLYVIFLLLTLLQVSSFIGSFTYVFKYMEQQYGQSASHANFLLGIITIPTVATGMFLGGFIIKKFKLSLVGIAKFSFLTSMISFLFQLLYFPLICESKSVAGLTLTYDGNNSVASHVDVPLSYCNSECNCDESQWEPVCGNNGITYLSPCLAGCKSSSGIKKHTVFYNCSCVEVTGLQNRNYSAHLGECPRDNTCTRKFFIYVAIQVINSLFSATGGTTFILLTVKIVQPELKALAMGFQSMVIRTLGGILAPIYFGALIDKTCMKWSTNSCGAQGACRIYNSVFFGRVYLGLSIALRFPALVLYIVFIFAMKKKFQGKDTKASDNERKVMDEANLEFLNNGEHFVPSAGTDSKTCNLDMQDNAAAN

BCRP = biological target: T3, BCRP (Homo sapiens, UniProt Q9UNQ0); conditions: cited from earlier work
T3 sequence (Q9UNQ0 1-655): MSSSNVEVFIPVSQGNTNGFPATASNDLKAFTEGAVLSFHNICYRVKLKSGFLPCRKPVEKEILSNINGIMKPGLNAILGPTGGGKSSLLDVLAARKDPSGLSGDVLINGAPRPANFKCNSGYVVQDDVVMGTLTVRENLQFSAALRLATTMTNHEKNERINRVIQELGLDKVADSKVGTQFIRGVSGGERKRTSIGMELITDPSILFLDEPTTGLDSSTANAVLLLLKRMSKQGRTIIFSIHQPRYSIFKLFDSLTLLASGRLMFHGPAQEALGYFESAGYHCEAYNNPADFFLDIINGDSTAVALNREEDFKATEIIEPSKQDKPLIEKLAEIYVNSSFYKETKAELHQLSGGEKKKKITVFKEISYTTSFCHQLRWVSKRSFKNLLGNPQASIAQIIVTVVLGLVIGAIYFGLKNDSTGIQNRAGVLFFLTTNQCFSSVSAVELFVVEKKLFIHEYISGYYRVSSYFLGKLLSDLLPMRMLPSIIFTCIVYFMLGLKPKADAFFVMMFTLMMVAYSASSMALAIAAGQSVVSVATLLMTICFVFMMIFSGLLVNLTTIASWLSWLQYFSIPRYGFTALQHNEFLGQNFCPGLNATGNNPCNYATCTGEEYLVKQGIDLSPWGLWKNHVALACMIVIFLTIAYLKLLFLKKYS

CYP = CYP inhibition potential; conditions: any CYP
[1] = PK of single agents vs fixed dose combinations, single dose in healthy volunteers (Example 13); format: in vivo, human; conditions: mean ± SD
Experimental: SMV (100 mg), ODV (50 mg), and Compound (III) (800 mg) were administered as three different formulations or together as single doses in vivo to healthy volunteers. The arms of the study included: • Arm 1 (Reference Arm): Single oral doses of single agents, one SMV 100-mg capsule, one ODV 50-mg tablet as granule layered solid dispersion with copovidone and poloxamers, and two Compound (III) 400-mg tablets, administered together. • Arm 2: Single oral dose of fixed dose combination (FDC02): SMV 100 mg+ODV 50 mg as a spray dried solid dispersion with HPMC-AS L in a ratio ODV/HPMC-AS L 1/1 w/w+Compound (III) 800 mg • Arm 3: Single oral dose of fixed dose combination (FDC04): SMV 100 mg+ODV 50 mg as a spray dried solid dispersion with HPMC-AS L in a ratio ODV/HPMC-AS L 1/3 w/w+Compound (III) 800 mg • Arm 4: Single oral dose of fixed dose combination (FDC01): SMV 100 mg+ODV 50 mg as a spray dried solid dispersion with copovidone and poloxamers+Compound (III) 800 mg
PK parameters, including Cmax, tmax, AUClast, and AUC∞ were measured for Compound (III), ODV, SMV, and metabolites Compound A-1 and Compound A-3 for each Arm of the study. Arms that included fixed dose combinations (FDC) (Arm 2, Arm 3, and Arm 4) were then compared to a single oral dose (Arm 1, the reference Arm). Table 9, Table 10, Table 11, Table 12 and Table 13 display relevant PK parameters and FIG. 9, FIG. 10, FIG. 11, FIG. 12, and FIG. 13 depict the plasma concentration over time of SMV, ODV, Compound A-1, and Compound A-3 for each Arm of the study.

[2] = Phase-1 drug-drug interaction study of Odalasvir, Simeprevir and Compound (III) in healthy volunteers; format: in vivo, human
Text: The following daily doses were employed:

P-gp = P-gp (Homo sapiens, UniProt P08183); conditions: cited from earlier work
MRP2 = MRP2 (Homo sapiens, UniProt Q92887); conditions: cited from earlier work
BSEP = BSEP (Homo sapiens, UniProt O95342); conditions: cited from earlier work
[3] = co-administered with SMV; cited from earlier work
[4] = Phase 2a open-label combination study, pharmacokinetics; format: in vivo, human
Experimental: A randomized, Phase 2a, open-label study was carried out to evaluate the safety, pharmacokinetics and efficacy of the combination of Compound (III), Odalasvir and Simeprevir in Genotype 1 treatment-naïve subjects with chronic hepatitis C. Other treatment-naïve subjects included Genotype 2, 3, 4, 5 and 6.
The aim of the study was to determine the efficacy, pharmacokinetics (PK), and safety of Compound (II)+Odalasvir±SMV in HCV-infected subjects.
This was an open-label study evaluating various dosing regimens of Compound (III)+Odalasvir±SMV for 6-8 weeks in treatment-nave HCV-infected subjects with varying clinical characteristics (e.g., GT 1 or 3, presence/absence of compensated Child Pugh A cirrhosis). Efficacy, PK and safety evaluations were conducted during and through 24 weeks post dosing. Up to 15 cohorts were enrolled; data was generated from cohorts that have completed dosing.

[5] = co-administered with SMV; cited from earlier work; remark: listed apart in the source
[6] = Arm 1 (reference): single agents
[7] = Arm 4: FDC01 (SMV 100 mg + ODV 50 mg spray dried with copovidone and poloxamers + Compound (III) 800 mg)

Sequence of MRP2 (Q92887 whole entry): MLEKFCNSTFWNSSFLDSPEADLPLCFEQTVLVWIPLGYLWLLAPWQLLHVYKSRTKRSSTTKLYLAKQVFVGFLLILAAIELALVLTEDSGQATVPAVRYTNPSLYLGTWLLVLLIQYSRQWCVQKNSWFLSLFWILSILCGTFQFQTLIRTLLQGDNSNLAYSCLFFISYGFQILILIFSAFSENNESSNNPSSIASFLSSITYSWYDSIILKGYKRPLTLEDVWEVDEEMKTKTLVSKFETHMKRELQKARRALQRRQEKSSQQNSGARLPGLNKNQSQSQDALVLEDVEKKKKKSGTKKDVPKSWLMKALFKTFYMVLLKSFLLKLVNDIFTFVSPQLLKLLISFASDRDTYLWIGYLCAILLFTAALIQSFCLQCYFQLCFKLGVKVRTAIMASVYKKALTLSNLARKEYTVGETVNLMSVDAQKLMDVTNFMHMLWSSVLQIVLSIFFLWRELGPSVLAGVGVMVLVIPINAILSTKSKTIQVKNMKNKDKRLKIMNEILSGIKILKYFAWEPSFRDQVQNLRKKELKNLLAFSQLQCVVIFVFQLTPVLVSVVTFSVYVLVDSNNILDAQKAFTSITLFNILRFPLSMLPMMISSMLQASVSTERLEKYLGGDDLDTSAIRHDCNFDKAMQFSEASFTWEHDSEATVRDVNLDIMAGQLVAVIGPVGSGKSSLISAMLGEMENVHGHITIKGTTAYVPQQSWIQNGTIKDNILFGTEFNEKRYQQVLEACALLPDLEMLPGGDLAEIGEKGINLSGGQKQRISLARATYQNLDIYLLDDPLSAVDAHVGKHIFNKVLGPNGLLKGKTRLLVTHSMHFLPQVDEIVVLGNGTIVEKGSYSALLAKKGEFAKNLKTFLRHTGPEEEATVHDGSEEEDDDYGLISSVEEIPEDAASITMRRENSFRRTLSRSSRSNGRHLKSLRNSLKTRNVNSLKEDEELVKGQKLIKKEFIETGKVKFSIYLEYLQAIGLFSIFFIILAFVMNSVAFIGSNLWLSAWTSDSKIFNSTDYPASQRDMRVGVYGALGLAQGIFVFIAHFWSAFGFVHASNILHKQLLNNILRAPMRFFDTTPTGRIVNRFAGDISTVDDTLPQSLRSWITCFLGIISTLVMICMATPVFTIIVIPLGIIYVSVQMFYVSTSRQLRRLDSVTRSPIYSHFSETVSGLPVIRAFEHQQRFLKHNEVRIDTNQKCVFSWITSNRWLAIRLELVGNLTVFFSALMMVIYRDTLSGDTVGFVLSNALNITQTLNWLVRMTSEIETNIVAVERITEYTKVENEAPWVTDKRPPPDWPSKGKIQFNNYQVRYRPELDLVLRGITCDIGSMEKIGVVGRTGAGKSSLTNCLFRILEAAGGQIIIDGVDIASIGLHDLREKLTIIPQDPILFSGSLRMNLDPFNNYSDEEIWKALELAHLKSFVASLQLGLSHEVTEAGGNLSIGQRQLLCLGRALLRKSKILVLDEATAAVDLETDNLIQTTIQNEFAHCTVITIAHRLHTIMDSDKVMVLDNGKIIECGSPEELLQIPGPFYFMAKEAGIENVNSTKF
Sequence of P-gp (P08183 whole entry): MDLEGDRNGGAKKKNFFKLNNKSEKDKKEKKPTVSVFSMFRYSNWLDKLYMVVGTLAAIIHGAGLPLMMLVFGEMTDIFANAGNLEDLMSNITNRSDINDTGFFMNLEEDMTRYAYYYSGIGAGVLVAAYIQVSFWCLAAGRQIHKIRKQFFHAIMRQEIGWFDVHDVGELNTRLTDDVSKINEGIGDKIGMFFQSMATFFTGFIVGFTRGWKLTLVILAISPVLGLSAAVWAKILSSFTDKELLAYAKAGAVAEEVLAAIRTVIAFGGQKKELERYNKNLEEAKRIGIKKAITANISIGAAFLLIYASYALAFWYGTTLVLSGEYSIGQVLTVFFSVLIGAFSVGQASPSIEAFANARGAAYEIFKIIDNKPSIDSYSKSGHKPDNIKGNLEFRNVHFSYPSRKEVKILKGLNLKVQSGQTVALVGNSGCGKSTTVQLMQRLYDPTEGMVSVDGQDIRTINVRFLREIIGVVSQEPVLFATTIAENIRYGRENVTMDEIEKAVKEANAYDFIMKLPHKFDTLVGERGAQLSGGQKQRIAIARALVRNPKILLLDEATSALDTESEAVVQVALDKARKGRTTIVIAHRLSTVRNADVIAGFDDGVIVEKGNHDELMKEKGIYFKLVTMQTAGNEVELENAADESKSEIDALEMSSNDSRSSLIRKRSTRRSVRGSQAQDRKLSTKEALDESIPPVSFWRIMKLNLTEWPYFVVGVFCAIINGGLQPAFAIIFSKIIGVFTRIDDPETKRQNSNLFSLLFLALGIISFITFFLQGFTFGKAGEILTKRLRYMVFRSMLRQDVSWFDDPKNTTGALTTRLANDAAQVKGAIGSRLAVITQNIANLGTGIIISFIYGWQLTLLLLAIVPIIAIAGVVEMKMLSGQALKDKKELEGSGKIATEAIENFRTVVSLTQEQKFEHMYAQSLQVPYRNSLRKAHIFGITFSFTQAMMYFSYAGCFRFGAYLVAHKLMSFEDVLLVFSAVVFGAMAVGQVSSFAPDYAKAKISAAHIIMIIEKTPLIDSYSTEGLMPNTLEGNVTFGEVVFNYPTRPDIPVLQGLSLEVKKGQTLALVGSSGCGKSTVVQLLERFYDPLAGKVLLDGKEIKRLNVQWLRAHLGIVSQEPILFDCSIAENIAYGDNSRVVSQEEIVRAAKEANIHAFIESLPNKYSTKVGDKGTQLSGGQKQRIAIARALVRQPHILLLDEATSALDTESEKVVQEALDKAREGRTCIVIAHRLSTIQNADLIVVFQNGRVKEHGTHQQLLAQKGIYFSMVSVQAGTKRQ
Sequence of BSEP (O95342 whole entry): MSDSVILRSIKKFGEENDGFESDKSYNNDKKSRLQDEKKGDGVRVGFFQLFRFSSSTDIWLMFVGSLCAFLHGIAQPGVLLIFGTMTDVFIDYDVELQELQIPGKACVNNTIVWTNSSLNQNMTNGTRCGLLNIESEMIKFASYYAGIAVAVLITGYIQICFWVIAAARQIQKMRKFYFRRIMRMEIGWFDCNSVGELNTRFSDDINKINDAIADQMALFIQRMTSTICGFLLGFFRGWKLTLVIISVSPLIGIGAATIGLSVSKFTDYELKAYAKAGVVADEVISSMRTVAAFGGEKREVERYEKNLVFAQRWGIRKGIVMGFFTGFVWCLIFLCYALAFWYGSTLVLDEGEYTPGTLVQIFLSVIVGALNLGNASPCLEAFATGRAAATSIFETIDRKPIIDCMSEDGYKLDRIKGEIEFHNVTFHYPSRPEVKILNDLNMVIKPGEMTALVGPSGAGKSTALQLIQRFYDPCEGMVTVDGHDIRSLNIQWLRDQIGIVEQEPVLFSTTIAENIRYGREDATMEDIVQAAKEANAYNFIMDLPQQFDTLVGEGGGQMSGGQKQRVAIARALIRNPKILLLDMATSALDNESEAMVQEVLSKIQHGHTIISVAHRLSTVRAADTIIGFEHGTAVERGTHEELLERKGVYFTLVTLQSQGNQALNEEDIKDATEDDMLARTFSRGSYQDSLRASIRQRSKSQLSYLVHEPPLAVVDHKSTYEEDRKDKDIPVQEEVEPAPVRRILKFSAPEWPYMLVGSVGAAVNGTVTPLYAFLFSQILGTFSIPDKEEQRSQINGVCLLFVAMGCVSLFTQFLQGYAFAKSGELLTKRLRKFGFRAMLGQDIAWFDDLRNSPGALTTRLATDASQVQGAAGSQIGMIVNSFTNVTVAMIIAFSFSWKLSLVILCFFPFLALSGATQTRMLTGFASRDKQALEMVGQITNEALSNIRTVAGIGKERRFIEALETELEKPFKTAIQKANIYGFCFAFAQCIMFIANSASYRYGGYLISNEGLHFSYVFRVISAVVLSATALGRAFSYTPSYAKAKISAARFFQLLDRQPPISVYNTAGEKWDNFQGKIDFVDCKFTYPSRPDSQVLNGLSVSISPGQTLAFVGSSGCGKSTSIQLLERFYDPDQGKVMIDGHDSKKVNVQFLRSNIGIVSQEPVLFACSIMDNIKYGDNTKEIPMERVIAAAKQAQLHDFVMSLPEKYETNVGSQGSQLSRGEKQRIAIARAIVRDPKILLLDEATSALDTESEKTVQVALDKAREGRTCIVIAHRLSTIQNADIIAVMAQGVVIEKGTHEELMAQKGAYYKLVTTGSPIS

Compound	in vitro inhibition of OATP1B1 (OATP1B1)	CYP inhibition potential (CYP)	t1/2term [1, 6] [h]	t1/2term ([1]; Arm 2: FDC02) [h]	t1/2term ([1]; Arm 3: FDC04) [h]	t1/2term ([1]; Arm 4: FDC01) [h]	increase of exposure caused by Odalasvir ([2]; DDI study results) [×]	increase of exposure caused by SMV ([2]; DDI study results)	AUClast ([1]; Arm 3: FDC04) [ng·h/mL]	AUC∞ ([1]; Arm 2: FDC02) [ng·h/mL]	Cmax [1, 7] [ng/mL]	AUClast ([1]; Arm 4: FDC01) [ng·h/mL]	AUC∞ ([1]; Arm 4: FDC01) [ng·h/mL]	further results
CC(C)OC(=O)[C@H](C)N[P@](=O)(OC[C@@]1(F)O[C@@H](n2ccc(=O)[nH]c2=O)[C@](C)(O)[C@@H]1O)Oc1ccccc1 [Compound (III), isopropyl ((S)-(((2S,3S,4R,5R)-5-(2,4-dioxo-3,4-dihydropyrimidin-1 (2H)-yl)-2-fluoro-3,4-dihydroxy-4-methyltetrahydrofuran-2-yl)methoxy)(phenoxy)phosphoryl)-L-alaninate]	no in vitro inhibition	limited	0.6 ± 0.1	0.7 ± 0.2	0.7 ± 0.1	0.6 ± 0.1	4	3 ×						activity against genotype 3 in vitro (HCV genotype 3): effective; in vitro inhibition of OATP1B3 (OATP1B3): no in vitro inhibition; in vitro inhibition of BCRP (BCRP): no in vitro inhibition; bioavailability when SMV and ODV are co-administered with Compound (III), compared to Compound (III) alone ([2]; both, human, in vivo): approximately 8 fold
COc1ccc2c(O[C@@H]3C[C@H]4C(=O)N[C@]5(C(=O)NS(=O)(=O)C6CC6)C[C@H]5/C=C\CCCCN(C)C(=O)[C@@H]4C3)cc(-c3nc(C(C)C)cs3)nc2c1C [Simeprevir, reference compound]	strong in vitro inhibition	limited	8.3 ± 1.8	8.7 ± 2.3	9.1 ± 1.6	8.5 ± 1.5	1.6		12893 ± 5828					in vitro inhibition of P-gp (P-gp): strong/moderate; in vitro inhibition of MRP2 (MRP2): strong/moderate; in vitro inhibition of BSEP (BSEP): strong/moderate; increase in Rosuvastatin exposure [3]: 3 fold; observed exposures in Cohort 1 / group (i) ([4]; Compound (III) 400 mg, ODV 50 mg QD, SMV 100 mg QD): higher than anticipated; decrease of SMV exposure on reducing SMV dosing from 100 mg to 75 mg QD ([4]; in vivo): less than proportionally; increase in exposure of Digoxin [5]: 35%; Cmax ([1]; Arm 3: FDC04 (SMV 100 mg + ODV 50 mg spray dried with HPMC-AS L 1/3 w/w + Compound (III) 800 mg)): 906 ± 321 ng/mL; AUC∞ ([1]; Arm 3: FDC04): 13449 ± 6015 ng·h/mL; effect of Compound (III) on SMV or ODV ([2]; DDI study results): no apparent effect; increase of exposure, effect of the three Compounds ([2]; DDI study results): 1.6 ×; increase of exposure on co-administration of Compounds I, II and III ([2]; human in vivo study (Example 1)): 1.6 times; effect of Compound (III) on bioavailability of SMV or ODV ([2]; human, in vivo): does not alter; increase of bioavailability of SMV by ODV ([2]; human, in vivo): 1.6 fold
C[C@H](NP(=O)(O)OC[C@@]1(F)O[C@@H](n2ccc(=O)[nH]c2=O)[C@](C)(O)[C@@H]1O)C(=O)O [Compound A-3]			2.6 ± 1.4	2.3 ± 0.6	2.9 ± 1.5	2.5 ± 0.7	2.6	1.6 ×		817 ± 133	197 ± 62.1	909 ± 244	926 ± 245	AUClast ([1]; Arm 2: FDC02): 790 ± 157 ng·h/mL
C[C@]1(O)[C@H](n2ccc(=O)[nH]c2=O)O[C@](F)(CO)[C@H]1O [Compound A-1]			19.6 ± 2.7	20.5 ± 3.3	20.2 ± 3.5	18.3 ± 3.5	1.5	no apparent effect	4714 ± 1310	4369 ± 1345	607 ± 208	4693 ± 1418	4555 ± 787	change of A-1 exposure on increasing the Compound (III) dose from 400 to 800 mg ([4]; in vivo): less than proportionally
